Assay results taken from PMC8119899, “A Single Mutation in the Outer Lipid-Facing Helix of a Pentameric Ligand-Gated Ion Channel Affects Channel Function Through a Radially-Propagating Mechanism” (Frontiers in Molecular Biosciences, 2021).
Positions count from the first letter of the chain named.

Columns and labels:
Format in all cases: cell-based
Details in all cases: mean and SEM, n ≥ 3
5-HT3A receptor K255A = target: T1, 5-HT3A receptor K255A (Mus musculus, UniProt P23979, K282A); test: FlexStation membrane potential dye, 5-HT response, K255A receptor in HEK293 cells; set-up: expressed in transfected cells; host or cells: HEK293
T1 sequence (P23979 24-489 K282A): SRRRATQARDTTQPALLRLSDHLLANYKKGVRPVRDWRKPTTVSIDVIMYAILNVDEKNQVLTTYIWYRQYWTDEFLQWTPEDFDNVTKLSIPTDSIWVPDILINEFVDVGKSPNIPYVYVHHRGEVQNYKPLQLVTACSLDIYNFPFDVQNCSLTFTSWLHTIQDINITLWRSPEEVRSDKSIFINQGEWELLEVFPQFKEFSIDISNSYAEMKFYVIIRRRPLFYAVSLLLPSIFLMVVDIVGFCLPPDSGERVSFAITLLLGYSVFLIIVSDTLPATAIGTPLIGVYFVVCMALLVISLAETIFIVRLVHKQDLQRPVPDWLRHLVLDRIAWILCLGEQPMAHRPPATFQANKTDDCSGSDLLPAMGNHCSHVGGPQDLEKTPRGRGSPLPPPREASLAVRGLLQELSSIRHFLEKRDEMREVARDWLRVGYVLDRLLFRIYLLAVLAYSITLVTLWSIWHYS
Protocol: (§1) The mouse 5-HT3A cDNA (Q6J1J7) in pcDNA3.1 (for HEK cell transfection) or pGEMHE (for RNA production) was modified by QuikChange site-directed mutagenesis (Agilent Technologies) to create point mutants (verified by sequencing).
(§2) Human embryonic kidney (HEK) 293 cells were maintained at 37 °C at 5% CO2 in a humidified atmosphere, in Dulbecco's Modified Eagle's Medium/Nutrient Mix F12 (1:1) (Invitrogen, Paisley, UK) with GlutaMAX^TM and 10% fetal bovine serum (GE Healthcare) (DMEM/FBS) and passaged when confluent.
(§3) As described previously (Price and Lummis, [2005]) cells were incubated for 45 min with fluorescent membrane potential-sensitive dye (Membrane Potential Blue kit, Molecular Devices) diluted in Flex buffer (10 mM HEPES, 115 mM NaCl, 1 mM KCl, 1 mM CaCl2, 1 mM MgCl2, and 10 mM glucose, pH 7.4), and subsequently assayed at room temperature for 180 s, with readings every 2 s. […] (log of the concentration of ligand), a is the minimum response, b is the maximum response, and nH is the Hill slope.

5-HT3A receptor Y441A = target: T2, 5-HT3A receptor Y441A (Mus musculus, UniProt P23979, Y468A); test: Two-electrode voltage clamp, 5-HT response, Y441A receptor in Xenopus oocytes; set-up: expressed in transfected cells; host or cells: Xenopus laevis oocytes (cRNA injection)
T2 sequence (P23979 24-489 Y468A): T1 sequence (P23979 24-489 K282A) with A259K, Y445A
Protocol: as §1
(§4) Xenopus laevis oocytes from EcoCyte Biosciences (Austin Texas) were injected with 100 pg cRNA (generated with the ThermoFisher mMESSAGE mMACHINE T7 transcription kit) and left in injection media [88 mM NaCl, 2.4 mM NaHCO3, 1 mM KCl, 0.82 mM MgSO4 ·7H20, 5 mM Tris-HCl, 0.33 mM Ca(NO3)2·4H2O, 0.41 mM CaCl2·2H2O, 2.51 mM sodium pyruvate, 0.12 mg/ml theophylline, 0.05 mg/ml gentamicin, pH 7.5] at 16 °C for 24 h. […] The holding potential was −60 mV, using glass microelectrodes with a resistance of approximately 1 MΩ backfilled with 3M KCl.

5-HT3A receptor C290A = target: T3, 5-HT3A receptor C290A (Mus musculus, UniProt P23979, C317A); test: Two-electrode voltage clamp, 5-HT response, C290A receptor in Xenopus oocytes
T3 sequence (P23979 24-489 C317A): T1 sequence (P23979 24-489 K282A) with A259K, C294A
Protocol: as §1, §4

5-HT3A receptor S297A = target: T4, 5-HT3A receptor S297A (Mus musculus, UniProt P23979, S324A); test: FlexStation membrane potential dye, 5-HT response, S297A receptor in HEK293 cells
T4 construct: expressed in transfected cells; host or cells: HEK293
T4 sequence (P23979 24-489 S324A): T1 sequence (P23979 24-489 K282A) with A259K, S301A
Protocol: as §1, §2, §3

SMILES: NCCc1c[nH]c2ccc(O)cc12 [5-HT]
- nH (5-HT3A receptor K255A): 2.6± 0.1
- nH (5-HT3A receptor Y441A): 1.0 ± 0.1
- nH (5-HT3A receptor C290A): 0.5 ± 0.1
- nH (5-HT3A receptor S297A): 3.5 ± 0.8
